Measured values from ChEMBL document CHEMBL3822379, “Development of novel 1,4-benzodiazepine-based Michael acceptors as antitrypanosomal agents” (Bioorg Med Chem Lett, 2016).

How the values were obtained:
[1] = biological target: Rhodesain (Trypanosoma brucei rhodesiense) (UniProt Q95PM0); assay: Inhibition of Trypanosoma brucei rhodesiense rhodesain expressed in Pichia pastoris X33 at 100 uM using Cbz-Phe-Arg-AMC as substrate measured over 10 mins by fluorescence microplate reader analysis
[2] = tested on: Trypanosoma brucei brucei; assay: Antitrypanosomal activity against trypomastigote form of Trypanosoma brucei brucei TC 221 after 24 hrs by alamar blue assay; assay type: functional, organism-based; settings: TC 221, 24 h
[3] = Cytotoxicity against mouse J774.1 cells incubated for 24 hrs by alamar blue assay; assay type: cell-based; settings: read-out: TC50

Rhodesain (Trypanosoma brucei rhodesiense), sequence (Q95PM0 1-450): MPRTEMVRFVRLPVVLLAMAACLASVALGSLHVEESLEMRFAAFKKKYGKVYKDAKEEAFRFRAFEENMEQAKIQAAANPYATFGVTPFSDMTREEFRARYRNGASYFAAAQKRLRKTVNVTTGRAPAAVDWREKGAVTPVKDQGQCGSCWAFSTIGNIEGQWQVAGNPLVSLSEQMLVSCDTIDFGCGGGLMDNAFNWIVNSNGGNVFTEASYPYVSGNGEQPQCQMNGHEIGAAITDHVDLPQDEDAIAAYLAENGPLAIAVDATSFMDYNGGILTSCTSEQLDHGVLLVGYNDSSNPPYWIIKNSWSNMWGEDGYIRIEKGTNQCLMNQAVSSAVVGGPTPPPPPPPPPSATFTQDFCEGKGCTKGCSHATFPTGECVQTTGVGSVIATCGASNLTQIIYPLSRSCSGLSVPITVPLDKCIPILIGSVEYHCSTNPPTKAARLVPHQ

| SMILES | inhibition [1] [%] | IC50 [2] [µM] | CC50 at 24 h [3] [µM] |
| --- | --- | --- | --- |
| COC(=O)/C=C/CCCCN1C(=O)CN=C(c2ccccc2)c2ccccc21 | 27 | 15.9 |  |
| COC(=O)/C=C/CNC(=O)CN1C(=O)[C@@H](COC(=O)NC23CC4CC(CC(C4)C2)C3)N=C(c2ccccc2)c2ccccc21 |  | 4.8 |  |
| N#C/C=C\CCCN1C(=O)CN=C(c2ccccc2)c2ccccc21 | 27 | > 40 |  |
| N#C/C=C\CCN1C(=O)CN=C(c2ccccc2)c2ccccc21 | 27 | > 40 |  |
| COC(=O)/C=C/CCCN1C(=O)CN=C(c2ccccc2)c2ccccc21 | 27 | 23.5 |  |
| COC(=O)/C=C\CCN1C(=O)CN=C(c2ccccc2)c2ccccc21 | 27 | > 40 |  |
| CC(=O)/C=C/CCCCN1C(=O)CN=C(c2ccccc2)c2ccccc21 | 27 | 13.1 |  |
| CC(=O)/C=C/CCCN1C(=O)CN=C(c2ccccc2)c2ccccc21 | 27 | 4.6 | 31.8 |
| N#C/C=C\CCCCN1C(=O)CN=C(c2ccccc2)c2ccccc21 | 27 | 14.5 |  |
| CC(=O)/C=C/CCN1C(=O)CN=C(c2ccccc2)c2ccccc21 | 27 | 5.3 | > 100 |
